Measured values taken from ChEMBL document CHEMBL1201862, “PubChem BioAssay data set” (2004).
Calls of active or inactive are those of the source.

What was measured:
[1] = target: T1, Neuropeptide Y receptor type 1 (Homo sapiens, UniProt P25929); assay type: functional;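 also: HEK293 cells with a CNG channel challenged with NPY then isoproterenol; potency as antagonist that reverses NPY suppression of cAMP signal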
T1 sequence (P25929 whole entry): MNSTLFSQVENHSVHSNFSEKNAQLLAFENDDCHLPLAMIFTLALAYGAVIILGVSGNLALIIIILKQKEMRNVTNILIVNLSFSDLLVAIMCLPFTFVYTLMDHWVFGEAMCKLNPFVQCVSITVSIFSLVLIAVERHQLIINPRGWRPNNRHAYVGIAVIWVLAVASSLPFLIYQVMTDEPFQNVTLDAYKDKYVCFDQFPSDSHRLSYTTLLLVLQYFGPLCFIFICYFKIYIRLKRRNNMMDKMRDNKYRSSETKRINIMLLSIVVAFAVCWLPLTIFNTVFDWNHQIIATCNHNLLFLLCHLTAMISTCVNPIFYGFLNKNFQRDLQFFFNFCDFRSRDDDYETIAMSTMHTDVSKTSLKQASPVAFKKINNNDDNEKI

[2] = target: T2, Neuropeptide Y receptor type 2 (Homo sapiens, UniProt P49146); assay type: functional, cell-based;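 also: HEK293 cells expressing the receptor and a CNG channel; stimulus was NPY near EC95 followed by isoproterenol to raise cAMP; antagonist potency measured as restoring cAMP signal that NPY suppresses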
T2 sequence (P49146 whole entry): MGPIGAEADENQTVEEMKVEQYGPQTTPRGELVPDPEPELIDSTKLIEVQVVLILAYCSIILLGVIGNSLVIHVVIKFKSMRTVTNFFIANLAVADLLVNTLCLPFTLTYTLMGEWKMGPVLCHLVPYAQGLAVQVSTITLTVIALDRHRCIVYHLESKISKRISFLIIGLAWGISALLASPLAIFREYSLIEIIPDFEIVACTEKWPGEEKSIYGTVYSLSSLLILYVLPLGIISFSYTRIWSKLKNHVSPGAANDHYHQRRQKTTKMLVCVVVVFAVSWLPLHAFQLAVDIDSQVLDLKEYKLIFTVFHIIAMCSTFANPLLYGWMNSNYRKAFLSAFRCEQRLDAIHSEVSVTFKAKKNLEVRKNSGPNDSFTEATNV

[3] = tested on: Streptococcus sp. 'group A'; assay: growth inhibition of control SK(-) GAS strain, dose response, counter-screen for streptokinase expression inhibitor project, luminescence, kanamycin, BacTiterGlo, confirmation (AID 1900); assay type: functional, organism-based
Oxytocin receptor = Oxytocin receptor (Homo sapiens, UniProt P30559); assay: Counterscreen for vasopressin 1 receptor (V1R) agonists: Fluorescence-based cell-based high throughput dose response assay for agonists of the Oxytocin Receptor (OXTR). [Related pubchem assays: 2435 (Primary screen (OXTR agonists in singlicate)), 434964 (Confirmation screen (V1R agonists in triplicate)), 434969 (Counterscreen (OXTR agonists in …; assay type: functional
Chain of Oxytocin receptor (P30559 whole entry): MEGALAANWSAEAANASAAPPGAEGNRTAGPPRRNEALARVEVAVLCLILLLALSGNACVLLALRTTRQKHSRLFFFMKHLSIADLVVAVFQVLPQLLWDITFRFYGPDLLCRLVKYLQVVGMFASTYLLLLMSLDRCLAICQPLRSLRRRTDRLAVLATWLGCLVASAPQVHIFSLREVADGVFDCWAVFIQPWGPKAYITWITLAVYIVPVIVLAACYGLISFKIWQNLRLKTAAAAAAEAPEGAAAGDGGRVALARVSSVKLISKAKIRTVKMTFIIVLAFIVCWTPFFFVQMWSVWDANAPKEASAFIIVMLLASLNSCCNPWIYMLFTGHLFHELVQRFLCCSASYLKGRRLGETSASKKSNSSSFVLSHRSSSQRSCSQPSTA

Vasopressin V1a receptor = Vasopressin V1a receptor (Homo sapiens, UniProt P37288); assay: Fluorescence-based cell-based high throughput dose response screening assay for agonists of the vasopressin 1 receptor (V1R).; assay type: functional
Streptococcus = assay: Group A Streptococcus viability loss, dose response, counter-screen for streptokinase expression inhibitor project, luminescence, BacTiterGlo (AID 1915); assay type: functional, organism-based;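 also: potency for reduction of bacterial viability or growth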
[4] = target: T3, Short transient receptor potential channel 4 (Mus musculus, UniProt Q9QUQ5); assay: mouse TRPC4 channel activators, dose response, cell-based, HEK293 TRPC4/mu-opioid, Fluo-4 calcium (AID 434937); assay type: functional
T3 sequence (Q9QUQ5 whole entry): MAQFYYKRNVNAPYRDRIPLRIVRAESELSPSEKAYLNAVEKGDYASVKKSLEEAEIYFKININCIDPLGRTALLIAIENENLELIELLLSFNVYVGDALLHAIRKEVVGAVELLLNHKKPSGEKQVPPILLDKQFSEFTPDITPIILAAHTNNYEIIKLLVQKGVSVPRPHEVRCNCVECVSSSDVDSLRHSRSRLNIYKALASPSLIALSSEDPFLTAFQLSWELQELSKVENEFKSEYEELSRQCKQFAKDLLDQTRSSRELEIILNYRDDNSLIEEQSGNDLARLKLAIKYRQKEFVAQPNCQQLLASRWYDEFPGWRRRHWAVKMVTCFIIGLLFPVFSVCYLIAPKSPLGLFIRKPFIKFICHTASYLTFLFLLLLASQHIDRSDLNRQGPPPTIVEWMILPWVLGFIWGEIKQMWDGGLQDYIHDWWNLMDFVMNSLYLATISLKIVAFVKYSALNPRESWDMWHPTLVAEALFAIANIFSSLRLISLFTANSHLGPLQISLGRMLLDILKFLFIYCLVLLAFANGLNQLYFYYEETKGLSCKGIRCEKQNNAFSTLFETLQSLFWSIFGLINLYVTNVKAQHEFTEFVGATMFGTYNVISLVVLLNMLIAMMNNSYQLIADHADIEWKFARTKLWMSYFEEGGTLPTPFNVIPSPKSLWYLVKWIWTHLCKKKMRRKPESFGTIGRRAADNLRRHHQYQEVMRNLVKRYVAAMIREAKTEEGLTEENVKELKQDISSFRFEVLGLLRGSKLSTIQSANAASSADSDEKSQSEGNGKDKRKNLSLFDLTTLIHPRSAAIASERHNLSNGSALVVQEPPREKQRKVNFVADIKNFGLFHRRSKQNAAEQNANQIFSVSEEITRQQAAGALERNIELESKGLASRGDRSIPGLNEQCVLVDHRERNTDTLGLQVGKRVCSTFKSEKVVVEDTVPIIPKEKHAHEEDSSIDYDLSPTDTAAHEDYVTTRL

[5] = target: Peroxisome proliferator-activated receptor gamma/Nuclear receptor coactivator 2 (Homo sapiens, UniProt P37231); assay type: functional;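 also: agonist potency for raising coactivator recruitment to the receptor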
Chain of Peroxisome proliferator-activated receptor gamma/Nuclear receptor coactivator 2 (P37231 whole entry): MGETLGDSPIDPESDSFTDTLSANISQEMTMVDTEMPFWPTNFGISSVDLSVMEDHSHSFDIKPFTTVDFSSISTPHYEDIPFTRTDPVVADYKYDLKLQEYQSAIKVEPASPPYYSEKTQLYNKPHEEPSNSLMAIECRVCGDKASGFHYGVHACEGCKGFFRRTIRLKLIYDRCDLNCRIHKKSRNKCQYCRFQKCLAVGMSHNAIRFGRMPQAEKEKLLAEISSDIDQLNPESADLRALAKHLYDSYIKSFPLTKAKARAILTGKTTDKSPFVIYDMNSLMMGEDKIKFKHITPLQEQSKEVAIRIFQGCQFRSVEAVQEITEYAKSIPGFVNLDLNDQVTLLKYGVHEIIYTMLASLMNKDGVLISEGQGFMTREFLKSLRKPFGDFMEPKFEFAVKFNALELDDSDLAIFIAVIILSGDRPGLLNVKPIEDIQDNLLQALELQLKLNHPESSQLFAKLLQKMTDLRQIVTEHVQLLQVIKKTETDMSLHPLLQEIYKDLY
Chain of Peroxisome proliferator-activated receptor gamma/Nuclear receptor coactivator 2 (Q15596 whole entry, further chain): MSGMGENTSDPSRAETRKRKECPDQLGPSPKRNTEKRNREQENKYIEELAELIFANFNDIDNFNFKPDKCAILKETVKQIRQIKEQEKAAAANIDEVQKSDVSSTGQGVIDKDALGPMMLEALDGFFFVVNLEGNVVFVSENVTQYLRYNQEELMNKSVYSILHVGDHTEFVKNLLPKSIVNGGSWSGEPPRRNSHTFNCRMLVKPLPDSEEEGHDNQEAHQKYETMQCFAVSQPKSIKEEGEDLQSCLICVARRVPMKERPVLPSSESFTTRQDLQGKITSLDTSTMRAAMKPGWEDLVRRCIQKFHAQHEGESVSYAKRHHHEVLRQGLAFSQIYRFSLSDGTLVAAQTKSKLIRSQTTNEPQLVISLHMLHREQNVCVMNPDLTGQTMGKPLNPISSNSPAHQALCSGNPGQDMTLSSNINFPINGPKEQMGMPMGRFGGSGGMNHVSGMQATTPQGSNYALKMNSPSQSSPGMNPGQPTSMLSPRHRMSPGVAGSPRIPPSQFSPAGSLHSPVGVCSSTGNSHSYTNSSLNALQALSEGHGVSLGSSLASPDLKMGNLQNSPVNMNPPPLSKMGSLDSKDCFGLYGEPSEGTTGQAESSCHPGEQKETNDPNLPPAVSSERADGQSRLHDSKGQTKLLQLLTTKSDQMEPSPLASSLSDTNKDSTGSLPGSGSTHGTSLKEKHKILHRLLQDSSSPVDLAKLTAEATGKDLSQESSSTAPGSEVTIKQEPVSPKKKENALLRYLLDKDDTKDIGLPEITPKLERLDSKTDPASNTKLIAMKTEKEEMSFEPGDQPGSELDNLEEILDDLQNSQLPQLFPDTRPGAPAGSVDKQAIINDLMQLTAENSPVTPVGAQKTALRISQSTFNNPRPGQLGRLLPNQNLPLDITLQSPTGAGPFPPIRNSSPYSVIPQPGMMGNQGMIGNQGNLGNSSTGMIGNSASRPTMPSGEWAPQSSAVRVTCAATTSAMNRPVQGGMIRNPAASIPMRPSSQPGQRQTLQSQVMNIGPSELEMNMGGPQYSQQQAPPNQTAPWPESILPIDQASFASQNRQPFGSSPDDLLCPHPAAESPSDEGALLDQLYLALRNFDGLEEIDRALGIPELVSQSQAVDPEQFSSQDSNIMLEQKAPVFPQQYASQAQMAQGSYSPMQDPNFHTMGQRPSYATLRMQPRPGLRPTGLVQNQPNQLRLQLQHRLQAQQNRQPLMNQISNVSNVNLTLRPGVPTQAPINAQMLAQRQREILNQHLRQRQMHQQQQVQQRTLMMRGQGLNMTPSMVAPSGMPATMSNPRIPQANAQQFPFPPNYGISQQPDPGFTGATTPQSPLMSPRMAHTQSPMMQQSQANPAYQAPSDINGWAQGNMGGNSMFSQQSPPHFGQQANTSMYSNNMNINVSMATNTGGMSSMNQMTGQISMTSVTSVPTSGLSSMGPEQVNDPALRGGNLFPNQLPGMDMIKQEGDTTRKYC

[6] = target: Peroxisome proliferator-activated receptor gamma/Nuclear receptor coactivator 1 (Homo sapiens, UniProt P37231); assay type: functional;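 also: agonist potency as compounds enhance coactivator SRC-1 recruitment to PPARgamma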
[7] = target: Peroxisome proliferator-activated receptor gamma/Nuclear receptor coactivator 3 (Homo sapiens, UniProt P37231); assay type: functional;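 also: agonist potency for raising coactivator recruitment to the receptor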
Chain of Peroxisome proliferator-activated receptor gamma/Nuclear receptor coactivator 3 (P37231 whole entry): as the sequence (P37231 whole entry) above
Chain of Peroxisome proliferator-activated receptor gamma/Nuclear receptor coactivator 3 (Q9Y6Q9 whole entry, further chain): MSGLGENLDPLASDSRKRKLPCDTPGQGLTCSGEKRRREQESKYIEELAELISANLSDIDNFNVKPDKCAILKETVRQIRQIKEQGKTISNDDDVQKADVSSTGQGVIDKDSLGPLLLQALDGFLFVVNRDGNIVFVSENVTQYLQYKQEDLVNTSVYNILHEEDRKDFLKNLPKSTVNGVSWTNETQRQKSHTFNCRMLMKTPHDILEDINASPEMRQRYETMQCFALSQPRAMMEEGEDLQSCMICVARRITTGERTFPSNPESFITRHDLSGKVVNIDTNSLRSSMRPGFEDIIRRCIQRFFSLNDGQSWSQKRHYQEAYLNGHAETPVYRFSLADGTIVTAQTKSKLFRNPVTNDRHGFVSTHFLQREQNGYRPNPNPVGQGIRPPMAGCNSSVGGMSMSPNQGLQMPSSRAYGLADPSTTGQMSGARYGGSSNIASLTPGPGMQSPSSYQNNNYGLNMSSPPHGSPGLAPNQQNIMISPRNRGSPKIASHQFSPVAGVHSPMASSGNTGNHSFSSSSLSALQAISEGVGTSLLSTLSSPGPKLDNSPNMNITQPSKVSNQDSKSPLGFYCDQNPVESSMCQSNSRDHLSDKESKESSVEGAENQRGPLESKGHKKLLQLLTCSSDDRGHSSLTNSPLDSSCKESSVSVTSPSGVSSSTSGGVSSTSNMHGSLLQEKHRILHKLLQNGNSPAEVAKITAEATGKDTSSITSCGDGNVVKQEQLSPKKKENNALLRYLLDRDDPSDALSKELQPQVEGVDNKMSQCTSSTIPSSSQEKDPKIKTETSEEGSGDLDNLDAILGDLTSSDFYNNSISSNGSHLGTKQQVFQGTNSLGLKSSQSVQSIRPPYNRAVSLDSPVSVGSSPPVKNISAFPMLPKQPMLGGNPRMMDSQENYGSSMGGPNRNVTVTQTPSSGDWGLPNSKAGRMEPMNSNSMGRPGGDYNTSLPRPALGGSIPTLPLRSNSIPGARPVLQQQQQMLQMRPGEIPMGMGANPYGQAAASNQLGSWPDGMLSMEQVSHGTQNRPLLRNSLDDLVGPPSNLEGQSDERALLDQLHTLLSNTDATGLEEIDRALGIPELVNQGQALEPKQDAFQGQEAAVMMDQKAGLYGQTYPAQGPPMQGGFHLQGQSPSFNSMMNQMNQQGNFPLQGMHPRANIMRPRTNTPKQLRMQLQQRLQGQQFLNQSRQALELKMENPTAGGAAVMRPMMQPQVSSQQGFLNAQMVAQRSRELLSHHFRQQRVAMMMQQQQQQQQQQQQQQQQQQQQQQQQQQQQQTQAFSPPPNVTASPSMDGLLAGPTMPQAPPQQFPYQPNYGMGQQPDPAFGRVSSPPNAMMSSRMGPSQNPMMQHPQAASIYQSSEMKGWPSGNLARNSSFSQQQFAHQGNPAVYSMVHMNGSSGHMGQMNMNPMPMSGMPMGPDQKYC

Estrogen receptor = Estrogen receptor (Homo sapiens, UniProt P03372);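 also: potency for inhibiting coactivator peptide recruitment to the receptor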
Chain of Estrogen receptor (P03372 whole entry): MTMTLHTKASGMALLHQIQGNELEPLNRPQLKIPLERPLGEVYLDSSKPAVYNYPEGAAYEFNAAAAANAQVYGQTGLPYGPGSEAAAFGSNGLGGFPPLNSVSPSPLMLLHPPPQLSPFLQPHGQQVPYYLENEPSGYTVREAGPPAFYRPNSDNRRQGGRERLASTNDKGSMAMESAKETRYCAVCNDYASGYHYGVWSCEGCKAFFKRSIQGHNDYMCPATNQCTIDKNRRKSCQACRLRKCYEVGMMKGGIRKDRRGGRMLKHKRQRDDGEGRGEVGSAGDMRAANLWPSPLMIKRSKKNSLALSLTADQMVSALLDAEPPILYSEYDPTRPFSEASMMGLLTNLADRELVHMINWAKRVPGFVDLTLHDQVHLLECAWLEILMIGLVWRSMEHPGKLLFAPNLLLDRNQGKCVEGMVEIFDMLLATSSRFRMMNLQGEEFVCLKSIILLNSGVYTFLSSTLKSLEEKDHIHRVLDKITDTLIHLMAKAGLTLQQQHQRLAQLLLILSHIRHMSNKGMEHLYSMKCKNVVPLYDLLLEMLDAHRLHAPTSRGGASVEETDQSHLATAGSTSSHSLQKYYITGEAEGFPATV

Estrogen receptor beta = Estrogen receptor beta (Homo sapiens, UniProt Q92731);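 also: recombinant ER-beta bound to coactivator SRC1 peptide in presence of estradiol agonist; inhibitors block coactivator peptide binding and lower the FRET signal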

IC50 [1]	IC50 [2]	EC50 [5]	EC50 [6]	EC50 [7]	SMILES	also measured
4.37 µM (active)	6.95 µM (active)				CCN(CC)CC(O)COc1ccc2c(c1)c(C(C)=O)c(C)n2-c1ccccc1 (configuration not stated)	
					O=c1c2cc(Br)ccc2nc(-c2cccc(Cl)c2)n1O	EC50 [3]: 1.13 µM (active); EC50 (Oxytocin receptor): > 9.97 µM (active); EC50 (Vasopressin V1a receptor): 6.68 µM (active); EC50 (Streptococcus): 2.86 µM (active); EC50 [4]: 9.44 µM (active)
		> 79.4 µM (not active)	> 79.4 µM (not active)	> 79.4 µM (not active)	COc1ccc(CCN(Cc2nc(O)c3ccccc3n2)C(=O)c2ccco2)cc1OC	
					O=C(c1cc(-c2ccco2)on1)N1CCc2ccccc2C1	IC50 (Estrogen receptor): 32.5 µM (not active); IC50 (Estrogen receptor beta): > 50 µM (not active)
		14.2 µM (not active)	18.8 µM (not active)	22.2 µM (not active)	COc1ccc(-c2cc(-c3cccs3)c(C#N)c(SCC(=O)NCc3ccccc3)n2)cc1	
5.68 µM (active)	4.61 µM (active)				CC(C)c1ccc(-c2nnn(Cc3nc4ccccc4s3)n2)cc1	
